Test results from PubChem BioAssay AID1918932 (Molecular Pharmacology Branch, DTP, NCI, 2023).

System: 171881-019-R-J1-PDC complex spheroid viability
Test: Anticancer human tumor 171881-019-R-J1-PDC patient-derived invasive breast carcinoma cell line growth inhibition
Details: for IC50: curve of first compound; for viability, T/C: stronger effect = lower value
From the text: Multicellular complex tumor spheroid response to LSD1 Inhibitor Iadademstat in combination with a variety of drugs and investigational agents in selected tumor cell lines
The current study was undertaken to assess response to LSD1 inhibitors in combination with standard-of-care drugs and investigational agents in solid tumor complex spheroid models as well as in the K-562 leukemia. Complex spheroids include a stromal component modeled by human endothelial cells (HUVEC) and fibroblasts modeled by human mesenchymal stem cells (MSCs). The concentration ranges selected for each drug and investigational agent were based upon clinically achievable concentrations if the clinical Cmax of the agent was known.
Compounds. The drugs and investigational agents used in this study are listed on Table 1. All of the agents used, including staurosporine (NSC755774) and gemcitabine (NSC613327), were obtained from the Developmental Therapeutics Program, NCI. FDA-approved anticancer drugs are available from the NCI at http://dtp.nci.nih.gov/branches/dscb/oncology_drugset_explanation.html. Drugs and investigational agents were >95% pure by proton nuclear magnetic resonance (NMR) and liquid chromatography/mass spectrometry (LC/MS). Stock solutions were prepared at 400x in DMSO, stored at -70 degrees C, and diluted in fresh medium prior to their use. The final concentration of DMSO in cell culture wells never exceeded 0.25% (v/v). The FDA-approved anticancer drug set is available from the Developmental Therapeutics Program at https://dtp.cancer.gov/organization/dscb/obtaining/available_plates.htm. All drugs and investigational agents were tested over a range starting from a high concentration at or near the clinical Cmax and decreasing in half-log increments. If the clinical Cmax for an agent had not been determined, the highest concentration tested was 10 microM.
Cell Lines. The patient-derived cancer cell (PDC) lines: 292921-168-R-J2-PDC, K24384-001-R-PDC, and 521955-158-R2-J5-PDC pancreatic carcinomas, 556581-035-R-J1 ovarian carcinoma, 324938-238-R-J1-PDC, 855422-203-R-J1-PDC and 883617-216-R-J1-PDC urothelial bladder carcinomas, 743489-274-T-PDC renal cell carcinoma, 138582-R-J1 Merkel cell tumor, K60290-347-R-J1 and K57222-313-R-J1-PDC glioblastomas, 653999-131-R-J2-PDC, LG0703-F948-PDC, and 349418-098-R-PDC non-small cell lung carcinomas, 885512-296-R-J2-PDC, 171881-019-R-J1-PDC breast carcinomas and 186277-243-T-J2-PDC and 233499-124-R-J2-PDC colon carcinomas were obtained from the NCI Patient-Derived Models Repository (PDMR, https://pdmr.cancer.gov). The established cell lines NCI/ADR-RES (RRID:CVCL_14520 and OVCAR-5 (RRID:CVCL_1628) ovarian carcinomas, 786-O (RRID:CVCL_1051) and A498 (RRID:CVCL_A498) renal cell carcinoma, NCI-H211 (ATCC, cat. CRL-5824; RRID:CVCL_1529), NCI-H196 (ATCC, cat. CRL-5823, RRID:CVCL_1509), SW 1271 (ATCC, cat. CRL-2177, RRID:CVCL_1716) and NCI-H1876 (ATCC, cat. CRL-5902, RRID:CVCL_1503) small cell lung carcinomas, MDA-MB-231 (RRID:CVCL_0062) and MDA-MB-468 (RRID:CVCL_0419)breast carcinomas (10-12). Pooled donor human umbilical vein endothelial cells (HUVEC, Lonza, cat. CC-2519) and human mesenchymal stem cells (hMSC, Lonza, cat. PT-2501) were purchased from Lonza (Walkersville, MD).
Cell Culture. All cells were maintained in an incubator at 37 degrees C and 5% CO2 with 95% humidity. The PDC lines were cultured according to standard operating procedures established by the NCI PDMR (https://pdmr.cancer.gov). Briefly all PDCs were thawed and cultured in Matrigel-coated flasks prepared with a working solution of 1X Ham's F-12 nutrient mix, without supplementation (Invitrogen, Waltham, MA, cat. 11765054), 100 U/mL penicillin-streptomycin (Invitrogen, cat. 15140122), and 2.5% Matrigel (Corning Inc., Corning, NY, cat. 354248) for the first three passages. […]

[1] = second compound 0.1 µM, first compound 0.000949 µM
[2] = second compound 0.1 µM, first compound 0.003 µM
[3] = second compound 0.1 µM, first compound 0.00949 µM
[4] = second compound 0.1 µM, first compound 0.03 µM
[5] = second compound 0.1 µM, first compound 0.0949 µM
[6] = second compound 0.1 µM, first compound 0.3 µM
[7] = second compound 0.316 µM, first compound 0.000949 µM
[8] = second compound 0.316 µM, first compound 0.003 µM
[9] = second compound 0.316 µM, first compound 0.00949 µM
[10] = second compound 0.316 µM, first compound 0.03 µM
[11] = second compound 0.316 µM, first compound 0.0949 µM
[12] = second compound 0.316 µM, first compound 0.3 µM
[13] = second compound 1 µM, first compound 0.000949 µM
[14] = second compound 1 µM, first compound 0.003 µM
[15] = second compound 1 µM, first compound 0.00949 µM
[16] = second compound 1 µM, first compound 0.03 µM
[17] = second compound 1 µM, first compound 0.0949 µM
[18] = second compound 1 µM, first compound 0.3 µM
[19] = second compound 3.16 µM, first compound 0.000949 µM
[20] = second compound 3.16 µM, first compound 0.003 µM
[21] = second compound 3.16 µM, first compound 0.00949 µM
[22] = second compound 3.16 µM, first compound 0.03 µM
[23] = second compound 3.16 µM, first compound 0.0949 µM
[24] = second compound 3.16 µM, first compound 0.3 µM
[25] = second compound 10 µM, first compound 0.000949 µM
[26] = second compound 10 µM, first compound 0.003 µM
[27] = second compound 10 µM, first compound 0.00949 µM
[28] = second compound 10 µM, first compound 0.03 µM
[29] = second compound 10 µM, first compound 0.0949 µM
[30] = second compound 10 µM, first compound 0.3 µM
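Note: spheroids exposed to agents for 7 days after 3 days growth.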

CCc1c2c(nc3ccc(O)cc13)-c1cc3c(c(=O)n1C2)COC(=O)[C@]3(O)CC + NC1CC1c1ccc(-c2cccc(O)c2)cc1
IC50 (second compound 0.1 µM): < 0.949 nM
IC50 (second compound 0.316 µM): < 0.949 nM
IC50 (second compound 1 µM): < 0.949 nM
IC50 (second compound 3.16 µM): < 0.949 nM
IC50 (second compound 10 µM): < 0.949 nM
viability, T/C [1]: 44.7%
viability, T/C [2]: 30.8%
viability, T/C [3]: 25.1%
viability, T/C [4]: 15.4%
viability, T/C [5]: 21.5%
viability, T/C [6]: 19.3%
viability, T/C [7]: 49%
viability, T/C [8]: 37.4%
viability, T/C [9]: 17.8%
viability, T/C [10]: 20%
viability, T/C [11]: 16.7%
viability, T/C [12]: 22.7%
viability, T/C [13]: 36.3%
viability, T/C [14]: 22.2%
viability, T/C [15]: 8.77%
viability, T/C [16]: 16.8%
viability, T/C [17]: 13.8%
viability, T/C [18]: 18.6%
viability, T/C [19]: 22.5%
viability, T/C [20]: 22.6%
viability, T/C [21]: 5.26%
viability, T/C [22]: 13.8%
viability, T/C [23]: 14.6%
viability, T/C [24]: 5.74%
viability, T/C [25]: 26.9%
viability, T/C [26]: 14.8%
viability, T/C [27]: 2.56%
viability, T/C [28]: 8.5%
viability, T/C [29]: 7.12%
viability, T/C [30]: 4.11%

Nc1ccn(C2OC(CO)C(O)C2(F)F)c(=O)n1 (stereo not given) + NC1CC1c1ccc(-c2cccc(O)c2)cc1
IC50 (second compound 0.1 µM): > 300 nM
IC50 (second compound 0.316 µM): > 300 nM
IC50 (second compound 1 µM): > 300 nM
IC50 (second compound 3.16 µM): > 300 nM
IC50 (second compound 10 µM): > 300 nM
viability, T/C [1]: 65.1%
viability, T/C [2]: 61.8%
viability, T/C [3]: 57.8%
viability, T/C [4]: 61.2%
viability, T/C [5]: 65%
viability, T/C [6]: 64.1%
viability, T/C [7]: 70.9%
viability, T/C [8]: 63.8%
viability, T/C [9]: 59.7%
viability, T/C [10]: 60.9%
viability, T/C [11]: 66.6%
viability, T/C [12]: 64.1%
viability, T/C [13]: 76.6%
viability, T/C [14]: 62.6%
viability, T/C [15]: 59.5%
viability, T/C [16]: 62.2%
viability, T/C [17]: 62%
viability, T/C [18]: 63.8%
viability, T/C [19]: 74.8%
viability, T/C [20]: 58.3%
viability, T/C [21]: 57.8%
viability, T/C [22]: 56.6%
viability, T/C [23]: 60.2%
viability, T/C [24]: 63.2%
viability, T/C [25]: 65.7%
viability, T/C [26]: 61.2%
viability, T/C [27]: 52.4%
viability, T/C [28]: 55.6%
viability, T/C [29]: 59.1%
viability, T/C [30]: 56%

O=C(c1cc(Cc2n[nH]c(=O)c3ccccc23)ccc1F)N1CCN(C(=O)C2CC2)CC1 + NC1CC1c1ccc(-c2cccc(O)c2)cc1
IC50 (second compound 0.1 µM): 3700 nM
IC50 (second compound 0.316 µM): 4090 nM
IC50 (second compound 1 µM): 4230 nM
IC50 (second compound 3.16 µM): 4400 nM
IC50 (second compound 10 µM): 3090 nM
viability, T/C (second compound 0.1 µM, first compound 0.0316 µM): 90.8%
viability, T/C (second compound 0.1 µM, first compound 0.1 µM): 106%
viability, T/C (second compound 0.1 µM, first compound 0.316 µM): 98.7%
viability, T/C (second compound 0.1 µM, first compound 1 µM): 88.5%
viability, T/C (second compound 0.1 µM, first compound 3.16 µM): 54.5%
viability, T/C (second compound 0.1 µM, first compound 10 µM): 22.7%
viability, T/C (second compound 0.316 µM, first compound 0.0316 µM): 101%
viability, T/C (second compound 0.316 µM, first compound 0.1 µM): 104%
viability, T/C (second compound 0.316 µM, first compound 0.316 µM): 101%
viability, T/C (second compound 0.316 µM, first compound 1 µM): 88%
viability, T/C (second compound 0.316 µM, first compound 3.16 µM): 57.8%
viability, T/C (second compound 0.316 µM, first compound 10 µM): 23.7%
viability, T/C (second compound 1 µM, first compound 0.0316 µM): 106%
viability, T/C (second compound 1 µM, first compound 0.1 µM): 105%
viability, T/C (second compound 1 µM, first compound 0.316 µM): 102%
viability, T/C (second compound 1 µM, first compound 1 µM): 89.5%
viability, T/C (second compound 1 µM, first compound 3.16 µM): 58.9%
viability, T/C (second compound 1 µM, first compound 10 µM): 24%
viability, T/C (second compound 3.16 µM, first compound 0.0316 µM): 102%
viability, T/C (second compound 3.16 µM, first compound 0.1 µM): 105%
viability, T/C (second compound 3.16 µM, first compound 0.316 µM): 101%
viability, T/C (second compound 3.16 µM, first compound 1 µM): 87%
viability, T/C (second compound 3.16 µM, first compound 3.16 µM): 61%
viability, T/C (second compound 3.16 µM, first compound 10 µM): 23.7%
viability, T/C (second compound 10 µM, first compound 0.0316 µM): 85.7%
viability, T/C (second compound 10 µM, first compound 0.1 µM): 84.2%
viability, T/C (second compound 10 µM, first compound 0.316 µM): 83.4%
viability, T/C (second compound 10 µM, first compound 1 µM): 74%
viability, T/C (second compound 10 µM, first compound 3.16 µM): 49.6%
viability, T/C (second compound 10 µM, first compound 10 µM): 18.9%
